# Reference: US20170042929A9, “Methods of Treating Neurological Diseases” (priority 2012, published 2017)
# Entries after “also recorded” stand apart in the source; their conditions may differ.
# What was measured:
# [1] = test system: hippocampal area CA1 of HET (SCN1A mSMEI) tissue; test: Evoked fEPSP extracellular recordings in hippocampal slices, Schaeffer collateral stimulation (single pulse and 40 Hz trains); format: cell-based, mouse; details: for population spike evoked by very low stimulation intensity: HET CA1; for fEPSP amplitude / synaptic excitability in HET tissue: HET hippocampus, ten pulse 40 Hz stimulation
# Description: (§1) Mice (P16-22) were anesthetized with isofluorane, decapitated, and the brains immediately removed. Transverse hippocampal sections (350 μm thickness) were cut in cold dissection solution (in mM: 2.6 KCl, 1.23 NaH2PO4, 24 NaHCO3, 0.1 CaCl2, 2 MgCl2, 205 sucrose, and 10 glucose) using a vibratome and were incubated for half an hour in normal artificial cerebrospinal fluid (ACSF; pH 7.3, 30° C.) containing (in mM) 130 NaCl, 1.2 MgSO4, 3.5 KCl, 1.2 CaCl2, 10 glucose, 2.5 NaH2PO4, 24 NaHCO3 aerated with 95% O2-5% CO2. After the incubation, slices were stained with Di-4ANNEPS (final dye concentration is 0.05 mg/ml) and left to recover for an additional hour at 30° C. (23). The slices were transferred to a submersion recording chamber (Warner Instr.) and continuously perfused (2 ml/min, at 30° C.) with the oxygenated ACSF.
# (§2) To characterize excitatory neural circuit activity, stimulating electrodes (concentric bipolar metal electrodes, 200 μm in diameter (FHC)) were placed on the Shaffer collaterals. fEPSP recordings were performed in hippocampal slices concurrently with the VSDI (FIGS. 1A-1E). Extracellular recording electrodes ([…], 0.9% saline) were placed in the CA1 radiatum layer. To monitor Di-4ANNEPS signals, the slices were illuminated either with Halogen (150 W; excitation 522-550 nm; emission—580 nm; dichroic—565 nm).
# Input-output (I-O) characteristics of fEPSPs were calculated using the same intensities of stimulation and incrementally (0.05 mA) raising them until the maximal responses or population spikes were obtained. 1-0 calculations were performed in stained and unstained slices to rule out a possible modulation of Di-4ANEPPS on GABA receptors (24). The responses from stained and unstained slices were not statistically different and were pooled together for the final analysis.
# (§3) To elicit short-term synaptic plasticity, Schaeffer collaterals were stimulated at 40 Hz frequency using 10 pulse (0.2 msec) trains. 40 Hz falls within the gamma frequency range and stimulation was repeated every 15 seconds with stimulus amplitude was set at the half of maximal fEPSP amplitude. fEPSP and VSDI optical data trials were synchronized.
# To modulate hippocampal hyperexcitability A1R agonist N6-cyclopentyladenosine (CPA) was used. N6-cyclopentyladenosine dissolved in DMSO was added to the bath ACSF solution. N6-cyclopentyladenosine took effect within 2 minutes of its application. 10 and 1 μM and 500, 100, 50, and 10 nM concentrations of CPA were tested. Since N6-cyclopentyladenosine acts through G-protein linked mechanisms, the washout of N6-cyclopentyladenosine was not possible in the current experiments. […] A1R […] DPCPX concentration was 200 nM. All drugs and dye were obtained from Sigma-Aldrich.
# [2] = test system: hippocampal CA1 circuit of HET (SCN1A mSMEI) tissue; test: Voltage-sensitive dye imaging (VSDI) of evoked neural activity propagation, FWHM; format: cell-based, mouse; details: for abnormally wide circuit excitation, neural activity map (dF/Fmax) / spatial extent of neural signal propagation: 50 nM CPA; for abnormally wide circuit excitation, neural activity map (dF/Fmax): HET animal P19; for spatial extent of neural signal propagation: HET tissue
# Description: as §1
# A combination of in vitro electrophysiology (extracellular field potential recording and whole-cell patch clamp recordings) and fast voltage-sensitive dye imaging (VSDI) was used. All electrical recordings were performed using MCC 700 amplifiers (Axon Instruments). Electrical data was acquired at 4 KHz, digitized at 10 KHz using a Digidata DAC board and pClamp software. Optical data were recorded at 250 Hz with MiCam 02 (192×126 pixels, SciMedia USA).
# as §2, §3
# Optical and electrical data were analyzed using Brain Vision and pClamp softwares. To increase signal to noise ratio, data analysis in individual slices and during pharmacological manipulations was performed on the averages of fifteen files (electrical and optical). Standard electrophysiological analysis techniques were used to analyze fEPSP, EPSC, and IPSC characteristics. For optical analysis, 1060 msec of data were fitted with an approximately Gaussian curve (25) and full width at half maximal (FWHM) values over the distance of 950 micrometers from the stimulating electrode toward subicullum were calculated using BrainVision (SciMedia). FWHM here quantifies distance of neuronal signal propagation (or decay). FWHM calculations along the orthodromic neural activity propagation trajectory included 15 frames before and 194 frames after the 40 Hz train stimulation, and was spanning over the evoked signal as shown in FIGS. 4A-4D. All results are reported as grouped averages with standard error of the mean. Results from WT and HET, or treated versus untreated groups were compared using unpaired and paired t-tests, respectfully. A p<0.05 was regarded as statistically significant value.
# [3] = test system: isolated mouse hippocampus; test: Febrile seizure-like events (FSLE) in hyperthermia, extracellular recording in isolated hippocampus; format: cell-based; details: CPA added immediately after the first FSLE, P18 isolated hippocampus
# Description: FIG. 9A: unfiltered extracellular recording traces (DC mode) of the typical repeated FSLEs in P18 isolated mouse hippocampus. […] Immediately after that CPA was added.
# Febrile seizure-like events (FSLE) emerge and terminate as sub-threshold bursts under conditions of hyperthermia at a temperature of about 39° C. in (FIGS. 6A-6C) while spontaneous inhibitory postsynaptic currents (IPSCs) evident at 32° C. (FIG. 6D) gradually diminish as the temperature increases (FIG. 6E). In hippocampal slices FSLEs emerged on the average at 38.5° C. in tissue from HET mice and at 40.5° C. in tissue from WT mice (FIGS. 7A-7B) where the FSLE durations was almost twice as long in HET tissue (FIG. 7C).
# SMEI mice (SCN1A HET) [4] = test: Acute CPA treatment, hyperthermia-induced seizures in vivo; set-up: species or system mouse
# Description: (§4) The model of SMEI used in these studies is caused by a knock-in nonsense substitution (CgG to TgA in exon 21) made within a loop between segments 5 and 6. Transgenic mice were provided by Drs. K. Yamakawa and I. Ogiwara (RIKEN, Japan (14)). All of the experiments on the mice (C57BL/6/129) involved in this project were performed in accordance with animal protocols approved by the Institutional Animal Care and Use Committee of the University of Houston. Heterozygous (HET) and wild-type (WT) mice were used.
# SMEI mice (SCN1A HET) [5] = test: Chronic CPA treatment (P11-P20), hyperthermia-induced seizures in vivo; set-up: species or system mouse
# Description: as §4
# The A1R agonist CPA has an acute effect on the control of hyperexcitable neural network, hyperthermia-induced seizure in vitro and in vivo. To investigate if the chronic treatment of mSMEI with CPA can have long-term effects on the rewiring of the neural circuit and FS threshold activity, CPA was injected into the SMEI mice twice a day for continuous 10 days during the critical activity-dependent period of development (P11-P20), and the effects were determined 24 hours and 10 days after the last injection.
# [6] = test system: CA1 pyramidal cells of HET SMEI mice; test: sEPSC and sIPSC whole-cell recordings after repeated CPA treatment; format: in vivo, mouse; details: repeated CPA treatment P11-P20, HET+CPA vs HET+vehicle
# Description: For electrical whole-cell voltage-clamp recordings, borosilicate glass micropipettes (4-7 MΩ) were used containing (in mM): 116 Cesium gluconate, 6 KCl, 0.5 EGTA, 20 HEPES, 10 phosphocreatine, 0.3 NaGTP, 2 NaCl, 4 MgATP, and 0.3% Neurobiotin (pH 7.25, 295 mOsm) and 5 mM QX-314 (fast voltage-gated conductance blocker). Spontaneous inhibitory postsynaptic currents (IPSCs) and EPSCs were recorded in CA1 pyramidal cells. sIPSCs were recorded at −80 mV in the presence of APV (100 μM) and CNQX (40 μM). sEPSCs were recorded at −70 mV in the presence of inhibitory synaptic transmission blocker picrotoxin (50 μM). Amplitude and frequency of sEPSCs and sIPSCs were measured and compared between WT and HET. For IPSC calculations, activity was studied in three 20 second segments (twenty seconds apart) for each cell (N=8 HET, 6WT). Since EPSCs have lower frequency, two minute long segments were used for their analysis (N=6). Cumulative distribution of the amplitudes and inter-event interval (frequency) were plotted in Prism software. t-test analysis was used to compare IPSCs and EPSCs in HET and WT tissue. All recordings were performed at 32° C. temperature. […]
# SMEI seizures = details: previously tested; cited from earlier work
# [7] = 50 nM CPA, listed as N6-cyclopentyladenosine
smiles,measurement,setting,value
"OC[C@H]1O[C@@H](n2cnc3c(NC4CCCC4)ncnc32)[C@H](O)[C@@H]1O [CPA, N6-cyclopentyladenosine]",population spike evoked by very low stimulation intensity,[1]; 50 nM CPA,reduced this spike into a field EPSP response
same,population spike evoked by very low stimulation intensity,[1]; [7],reduced this spike into a fEPSP response; also recorded: effectively reduced this exaggerated response into fEPSP
same,fEPSP amplitude / synaptic excitability in HET tissue,[1]; 50 nM CPA,significantly reduced fEPSP; also recorded: significantly reduced hippocampal circuit hyperexcitability without blocking excitatory synaptic transmission
same,fEPSP amplitude / synaptic excitability in HET tissue,[1]; [7],"significantly reduced fEPSP trains; also recorded: significantly reducing synaptic excitability in HET tissues, without blocking synaptic transmission"
same,"short-term plasticity (STP), fEPSP amplitude ratios pulses #2-10 to #1","[1]; 50 nM CPA, HET vs HET+CPA, 40 Hz train",effected the short-term plasticity; also recorded: all statistically different
same,fEPSPs,[1]; 1 μM N6-cyclopentyladenosine in bath ACSF,completely eliminated fEPSPs
same,fEPSPs,[1]; 10 μM N6-cyclopentyladenosine in bath ACSF,completely eliminated fEPSPs
same,time until N6-cyclopentyladenosine took effect after its application,[1]; bath application in ACSF,≤ 2 min
same,"abnormally wide circuit excitation, neural activity map (dF/Fmax)",[2],reduced significantly; also recorded: reduced the abnormally wide circuit excitation
same,"abnormally wide circuit excitation, neural activity map (dF/Fmax)",[2]; listed as N6-cyclopentyladenosine,abnormally wide CA1 circuit activation was confined; also recorded: reduced the abnormally wide circuit excitation
same,spatial extent of neural signal propagation,[2]; 40 Hz train,significantly reduced the spatial extent of neural signal propagation
same,spatial extent of neural signal propagation,"[2]; 40 Hz train, listed as N6-cyclopentyladenosine",significantly reduced the spatial extent of neural signal propagation; also recorded: reduced propagation of the evoked signal
same,"FWHM, spread of the evoked activity","[2]; HET slices + 50 nM CPA, 40 Hz train, untreated HET 591±106 μm, N=6 slices",491±106 μm
same,epileptogenic activity (repeated FSLEs) in hyperthermia,[3],blocked epileptogenic activity in hyperthermia; also recorded: no repetitive FSLEs formed
same,seizure duration,"SMEI mice (SCN1A HET) [4]; acute CPA 15 minutes before hyperthermia, vehicle 5.91±1.17 min",2.26 ± 0.43 min
same,seizure latency,"SMEI mice (SCN1A HET) [4]; acute CPA 15 minutes before hyperthermia, vehicle 8.19±0.95 min",11.68 ± 0.70 min
same,seizure duration,"SMEI mice (SCN1A HET) [4]; acute CPA i.p. 15 minutes prior, HET+saline 5.91±1.17 (figure legend)",2.26±0.43
same,seizure latency,"SMEI mice (SCN1A HET) [4]; acute CPA i.p. 15 minutes prior, HET+saline 8.19±0.95 (figure legend)",11.68±0.70
same,seizure incidence,"SMEI mice (SCN1A HET) [5]; chronic CPA twice a day P11-P20, 24 hours after the last treatment, vehicle 83.3%",53%
same,seizure incidence,"SMEI mice (SCN1A HET) [5]; chronic CPA twice a day P11-P20, 10 days after the last treatment, vehicle 75%",43%
same,seizure duration,"SMEI mice (SCN1A HET) [5]; chronic CPA, 24 hours after the last treatment, vehicle 3.980±0.6651",1.424±0.6904
same,seizure latency,"SMEI mice (SCN1A HET) [5]; chronic CPA, 24 hours after the last treatment, vehicle 8.080±1.772",11.25±1.140
same,sIPSC amplitude,[6],does not cause significant change in sIPSCs; also recorded: no significant difference
same,sIPSC interval,[6],does not cause significant change in sIPSCs; also recorded: no significant difference
CCCn1c(=O)c2[nH]c(C3CCCC3)nc2n(CCC)c1=O [DPCPX],effect of DPCPX on the CPA-induced decrease of fEPSP amplitude,[1]; DPCPX 200 nM added to ACSF with 50 nM CPA,prevented N6-cyclopentyladenosine to decrease fEPSP amplitude; also recorded: N6-cyclopentyladenosine was ineffective at reducing fEPSP
NC(=O)N1c2ccccc2C=Cc2ccccc21 [carbamazepine],efficacy against SMEI seizures,SMEI seizures,none of these agents worked reliably
Nc1nnc(-c2cccc(Cl)c2Cl)c(N)n1 [lamotrigine],efficacy against SMEI seizures,SMEI seizures,none of these agents worked reliably
